Results published in paper PMC6539495, “Anti-Cancer Activity of Novel Dihydrotestosterone-Derived Ring A-Condensed Pyrazoles on Androgen Non-Responsive Prostate Cancer Cell Lines” (International Journal of Molecular Sciences, 2019).
Like-named read-outs stand apart in the source and are kept apart here.

How the values were obtained:
PC-3 cells [1] = assay: MTT cell viability assay on PC-3 prostate cancer cells; format: cell-based, human; settings: for Mean values (%) of primary growth inhibitory screen (viability in %), PC-3 / IC50: 72 hours, MTT; for antiproliferative potency against PC-3 prostate cancer cells compared to MRC-5 non-cancerous fibroblasts: primary screen; for IC50: ± SD
Description: (§1) HeLa, MCF-7 and MDA-MB-231 cells were obtained from Sigma-Aldrich and maintained as reported previously. MRC-5, PC-3, DU 145 cells were purchased from American Type Culture Collection (ATCC, Manassas, VA, USA). PC-3 and DU 145 were maintained in RPMI medium (Sigma-Aldrich) whereas MRC-5 cells were maintained in DMEM medium (Sigma-Aldrich). All media were complemented with 10% Fetal bovine serum (FBS, Sigma-Aldrich) 2 mM L-glutamine, 0.01% streptomycin and 0.005% ampicillin (Sigma-Aldrich). Cells were cultured under standard conditions in a 37 °C incubator containing 5% CO2 in 95% humidity.
(§2) Each test compound was dissolved in cell culture grade DMSO (Molar Chemicals, Halásztelek, Hungary) in a final concentration of […]. Antiproliferative action of the synthesized steroids was investigated by MTT assay. An amount of 5000 cells/well were seeded into 96 well plates. Twenty-four hours post seeding, all cell lines were treated with each compound in 10 and 30 μM concentrations for 72 hours. […] After 72 hours, cells were washed with PBS and incubated with culture medium containing 0.5 mg/mL MTT (3-(4, 5-dimethylthiazolyl-2)-2,5-diphenyltetrazolium bromide) reagent (SERVA, GmbH, Heidelberg, Germany) for an hour at 37 °C. Formazan crystals were solubilized in DMSO and extinction was measured at 570 nm using a Synergy HTX plate reader (BioTech-Hungary, Budapest, Hungary). MTT assays were performed at least three times using four independent biological replicates. Data were normalized to solvent controls and the graphical representation of the obtained data as well as the calculation of IC50 values were carried out by GraphPad Prism 7 software (GraphPad Software; San Diego, CA, USA).

MRC-5 cells [2] = assay: MTT cell viability assay on non-cancerous MRC-5 fibroblasts; format: cell-based; settings: for Mean values (%) of primary growth inhibitory screen (viability in %), MRC-5 / IC50: 72 hours, MTT; for IC50: ± SD
Description: as §1, §2

DU 145 cells [3] = assay: MTT cell viability assay on DU 145 prostate cancer cells; format: cell-based, human; settings: for IC50: ± SD
Description: as §1, §2

MDA-MB-231 cells = assay: MTT cell viability assay on MDA-MB-231 breast cancer cells; format: cell-based, human; settings: for IC50: ± SD
Description: as §1, §2

HeLa cells = assay: MTT cell viability assay on HeLa cervical cancer cells; format: cell-based, human; settings: 72 hours; for IC50: ± SD
Description: as §1, §2

MCF-7 cells = assay: MTT cell viability assay on MCF-7 breast cancer cells; format: cell-based, human; settings: for IC50: ± SD
Description: as §1, §2

PC-3 cells [4] = assay: Annexin V/PI apoptosis detection assay (flow cytometry); format: cell-based, human; settings: for percentage of annexin V-positive cells (Q2 + Q3): PC-3, 5 µM, 48-hour treatment
Description: PC-3 cells were seeded at 2 × 10^6 cells/well density in 6-well plates. On the following day cells were treated with 5 µM of either compound 4e or 4j or with 200 µM of cisplatin (Accord Healthcare Ltd., Middlesex, UK). After 48-hour treatment, cells were collected and a Dead Cell Apoptosis Kit containing AnnexinV-FITC and propidium iodide (Life Technologies-Hungary, Budapest, Hungary) was used according to the manufacturer’s recommendation. Fluorescence intensities of at least 10,000 cells/sample were measured by FACSCalibur™ (BD Biosciences, Franklin Lakes, CA, USA) and data were analyzed by FlowJo V10 software (BD Biosciences, Franklin Lakes, NJ, USA). Experiments were repeated three times using triplicates.

Bax mRNA in PC-3 cells = assay: RT-qPCR of Bax mRNA; format: cell-based, human; settings: PC-3, 48 h; 4e, 4j 5 µM; cisplatin 200 µM; GAPDH reference
Description: (§3) PC-3 cells were seeded at 2 × 10^6 cells/well density in 6 well plates. On the following day cells were treated with 5 µM of either compound 4e or 4j or with 200 µM of cisplatin. Cells were collected 48-hours post-treatment and total cellular RNA was isolated using RNeasy® Mini Kit (QIAGEN, Hilden, Germany) according to the manufacturer’s recommendation. RNA (2 µg) was reverse transcribed (TaqMan® Reverse Transcription kit, Applied Biosystems, Foster City, CA, USA) in 50 µL total volume. PCR reactions were performed on PicoReal™ Real-time PCR (Thermo Scientific, Walthan, MA, USA) using SYBRGreen qPCR Master Mix (Thermo Scientific) with an input of 1 µL cDNA. Each primer (Table 3) was used at 200 nM concentration. Relative transcript levels were determined by the ΔΔCt analysis using GAPDH as reference gene. Experiments were repeated three times with three biological replicates.

[5] = tested on: caspase 3 mRNA in PC-3 cells; assay: RT-qPCR of caspase 3 mRNA; format: cell-based, human; settings: PC-3, 48 h; 4e, 4j 5 µM; cisplatin 200 µM; GAPDH reference
Description: as §3

[6] = Solubility in DMSO for pharmacological studies; format: physicochemical; settings: final concentration of 5 mM
Description: To perform pharmacological studies, the synthesized DHT derivatives were dissolved in DMSO (dimethyl sulfoxide) in a final concentration of 5 mM. One compound (5h) was non-soluble in the applied solvent, thus was excluded from the pharmacological evaluations. […] For this, PC-3 and DU 145 prostate cancer cells, MCF-7 and MDA-MB-231 breast cancer cells, HeLa cervical cancer cells and non-cancerous MRC-5 fibroblasts were used. […] On the heat map representing viability results following treatments with DHT derivatives at 30 µM concentration a remarkable structure–function relationship can be recognized (Figure 3).

DU 145 cells [7] = tested on: DU 145 cells; parameters: method as in PMID 28595942; settings: assessed previously; cited from earlier work
MRC-5 cells [8] = tested on: MRC-5 cells; parameters: method as in PMID 28595942; settings: assessed previously; cited from earlier work
PC-3 cells [9] = tested on: PC-3 cells; parameters: method as in PMID 28595942; settings: assessed previously; cited from earlier work

Row | SMILES | Mean values (%) of primary growth inhibitory screen (viability in %), PC-3 (PC-3 cells [1]; 10 µM) [%] | antiproliferative potency against PC-3 prostate cancer cells compared to MRC-5 non-cancerous fibroblasts (PC-3 cells [1]; 10 µM) | Mean values (%) of primary growth inhibitory screen (viability in %), PC-3 (PC-3 cells [1]; 30 µM) [%] | Mean values (%) of primary growth inhibitory screen (viability in %), MRC-5 (MRC-5 cells [2]; 10 µM) [%] | Mean values (%) of primary growth inhibitory screen (viability in %), MRC-5 (MRC-5 cells [2]; 30 µM) [%] | Mean values (%) of primary growth inhibitory screen (viability in %), DU 145 (DU 145 cells [3]; 10 µM, 72 hours) [%] | Mean values (%) of primary growth inhibitory screen (viability in %), DU 145 (DU 145 cells [3]; 30 µM, 72 hours) [%] | Mean values (%) of primary growth inhibitory screen (viability in %), MDA-MB-231 (MDA-MB-231 cells; 10 µM, 72 hours) [%] | Mean values (%) of primary growth inhibitory screen (viability in %), MDA-MB-231 (MDA-MB-231 cells; 30 µM, 72 hours) [%] | melting point [°C] | Mean values (%) of primary growth inhibitory screen (viability in %), HeLa (HeLa cells; 10 µM) [%] | Mean values (%) of primary growth inhibitory screen (viability in %), HeLa (HeLa cells; 30 µM) [%] | Mean values (%) of primary growth inhibitory screen (viability in %), MCF-7 (MCF-7 cells; 10 µM, 72 hours) [%] | Mean values (%) of primary growth inhibitory screen (viability in %), MCF-7 (MCF-7 cells; 30 µM, 72 hours) [%] | IC50 (PC-3 cells [1]) [µM] | IC50 (MRC-5 cells [2]) [µM] | IC50 (DU 145 cells [3]; 72 hours) [µM] | percentage of annexin V-positive cells (Q2 + Q3) (PC-3 cells [4]) [%] | Bax mRNA expression level compared to untreated control (Bax mRNA in PC-3 cells) | caspase 3 mRNA expression level compared to untreated control [5] | also measured
1 | Cc1c2c(nn1-c1ccccc1)CC1CCC3C4CCC(O)C4(C)CCC3C1(C)C2 (stereo not drawn) [4a, 17β-Hydroxy-1′-phenyl-5′-methylpyrazolo[3′,4′:3,2]-5α-androstane] | 36.8 | significantly higher | 3.2 | 68.3 | 1.2 | 67.3 | 1.5 | 75.0 | 32.1 | 241 to 245 | 49.6 | 46.7 | 57.1 | 5.5 | – | – | – | – | – | – | IC50 (PC-3 cells [1]; Homo sapiens, PC-3): 5.6 ± 1.2 µM; IC50 (MRC-5 cells [2]; Homo sapiens, MRC5): 23.7 ± 2.3 µM; IC50 (DU 145 cells [3]; Homo sapiens, DU-145, 72 hours): 9.2 ± 1.2 µM; IC50 (MDA-MB-231 cells; Homo sapiens, MDA-MB-231, 72 hours): 15.3 ± 3.4 µM; IC50 (HeLa cells; Homo sapiens, HeLa): 16.9 ± 3.7 µM; IC50 (MCF-7 cells; Homo sapiens, MCF7, 72 hours): 12.9 ± 0.1 µM
2 | COc1ccc(-n2nc3c(c2C)C[C@@]2(C)[C@@H](CC[C@@H]4[C@@H]2CC[C@]2(C)[C@@H](O)CC[C@@H]42)C3)cc1 [4e, 17β-Hydroxy-1′-(4″-methoxyphenyl)-5′-methylpyrazolo[3′,4′:3,2]-5α-androstane] | 28.4 | – | 10.8 | 71.2 | 28.8 | 23.3 | 5.5 | 35.2 | 13.6 | – | 31.7 | 15.1 | 20.9 | 14.0 | 4.2 ± 1.1 | 8.6 ± 1.3 | 3.6 ± 1.2 | 33.96 | significantly increased | significantly increased | specificity in cancer cell toxicity (cancer cell lines vs MRC-5) (MRC-5 cells [2]; primary screen, manifested already at 10 µM): utmost specificity; IC50 (MDA-MB-231 cells; 72 hours): 6.6 ± 0.9 µM; IC50 (HeLa cells): 8.5 ± 0.6 µM; IC50 (MCF-7 cells; 72 hours): 5.5 ± 0.6 µM
3 | Cc1c2c(nn1-c1ccc([N+](=O)[O-])cc1)CC1CCC3C4CCC(O)C4(C)CCC3C1(C)C2 (stereo not drawn) [4j, 17β-Hydroxy-1′-(4″-nitrophenyl)-5′-methylpyrazolo[3′,4′:3,2]-5α-androstane] | 38.2 | significantly higher | 41.6 | 99.1 | 99.8 | 82.8 | 60.4 | 83.8 | 80.6 | – | 60.5 | 64.6 | 55.8 | 49.6 | 5.6 ± 1.1 | > 30 | 19.7 ± 1 | 37.89 | significantly increased | significantly increased | antiproliferative potency against PC-3 prostate cancer cells compared to MRC-5 non-cancerous fibroblasts (PC-3 cells [1]; 30 µM): significantly higher; IC50 (MDA-MB-231 cells; 72 hours): > 30 µM; IC50 (HeLa cells): > 30 µM; IC50 (MCF-7 cells; 72 hours): 18.2 ± 3.9 µM
4 | Cc1c2c(nn1-c1ccccc1)C[C@@H]1CC[C@@H]3[C@H](CC[C@]4(C)C(=O)CC[C@@H]34)[C@@]1(C)C2 [5a, 1′-Phenyl-5′-methylpyrazolo[3′,4′:3,2]-5α-androst-17-one] | 47.7 | – | 7.6 | 78.0 | 3.9 | 80.1 | 4.0 | 85.0 | 15.2 | 247 to 250 | 70.5 | 26.2 | 73.3 | 7.5 | – | – | – | – | – | – | –
5 | Cc1c2c(nn1-c1ccc(Br)cc1)CC1CCC3C4CCC(=O)C4(C)CCC3C1(C)C2 (stereo not drawn) [5h, 1′-(4″-Bromophenyl)-5′-methylpyrazolo[3′,4′:3,2]-5α-androst-17-one] | – | – | – | – | – | – | – | – | – | – | – | – | – | – | – | – | – | – | – | – | solubility in the applied solvent (DMSO) [6]: non-soluble
6 | N.N.[Cl][Pt][Cl] [cisplatin, reference compound] | – | – | – | – | – | – | – | – | – | – | – | – | – | – | – | – | – | – | significantly increased | significantly increased | IC50 (DU 145 cells [7]): 126.8 ± 1.18 µM; apoptosis induction (annexin V/PI), in words (PC-3 cells [4]; PC-3, 200 µM cisplatin, 48 h): prominent apoptosis; IC50 (MRC-5 cells [8]): 237.3 ± 1.16 µM; IC50 (PC-3 cells [9]): 230.9 ± 1.37 µM
